Reference: patent publication US12012375B2, “Prostaglandin F2 alpha derivatives for decreasing intraocular pressure” (GURUS BIOPHARM LIMITED LIABILITY COMPANY, priority 2018, dated 2024)

How the values were obtained:
3T3-L1 cells [1] = test: Nitric oxide generation (modified Griess method); format: cell-based, mice; conditions: for NO generation, % to control: mice 3T3-L1 cells, concentration of 100 μM, 20 hours
Experimental: (§1) 3T3-L1 cells were incubated at 95% humidity, in the 5% CO2 atmosphere, at 37° C. Cultivation was performed in DMEM medium comprising 7% FCS, 2 mM of glutamine, 100 U/ml of penicillin, 100 μg/ml of streptomycin and 0.25 μg/ml of amphotericin B. Cells were subcultured every 48-72 hours. For the purpose of suspending the cells were incubated in Versene's solution within 2-3 minutes and in Trypsin-EDTA solution (0.25%).
Cells were inoculated by 30 thousand into wells (monolayer) of 96-well plate in 100 μl of medium. Incubation with substances lasted 20 hours. After that, medium aliquot was sampled from each well, and NO concentration was determined by modified Griess method. 12.5 μl of 0.04% sulfanilamide water solution were added to 75 μl of test medium in wells of 96-well plate for EIA, held within 10 minutes at room temperature protected from light, then, 12.5 μl of 2% naphthylethylenediamine solution in 3M of HCl were added, held again for 10 minutes at room temperature protected from light, then the optical absorption was determined at the wavelength of 540 nm.

normotensive rabbits = test: Reducing intraocular pressure after instillation in normotensive rabbits; format: in vivo, chinchilla rabbits; conditions: for IOP reduction: single instillation of 2 drops into both eyes, maximum value of 5 animals' average data within 6 hours
Experimental: The study was performed on chinchilla rabbits with a mass of 2.5-3 kg. IOP was measured by automatic manual veterinary tonometer Tonovet (Icare, Finland).
2 groups of rabbets were used for testing each sample:
5 animals instilled with a single dose of sample into both eyes.
5 animals instilled with a single dose of normal saline into both eyes.
All test samples were instilled by 2 drops by a disposable pipette. IOP was measured before instillation and further, every hour within 6 hours. All tested substances were capable of reducing intraocular pressure in normotensive rabbits.

3T3-L1 cells [2] = test: Cytotoxicity, MTT assay of cell survival; format: cell-based; conditions: cultivated mice 3T3-L1 cells, 24 hours incubation
Experimental: as §1, with “solution within 1 minute and in” for “solution within 2-3 minutes and in”, “Trypsin-EDTA solution within 1 minute (0.25%).” for “Trypsin-EDTA solution (0.25%).”
(§2) Cells were inoculated by 30 thousand into wells of 96-well plate (monolayer) in 100 μl of medium for MTT-test. After 24 hours of cultivation 100 μl of test substances in the medium used for cell culture were added to the cells with replacement of culture medium with a new one. Cells were incubated with test substances for 24 hours. Cells, to which 100 μl of medium used for cell culture were added to, were used as […].
(§3) Assessment of cell survival in the culture using the MTT assay After the incubation, the medium was removed from each well, and then 100 μl of MTT solution were added to each well (0.5 mg/ml of MTT, 3.5 mg/ml of D-glucose in Hanks' solution). The plate was placed into CO2-incubator (Ependorf, Germany) for 1.5 h. After that, MTT was removed and 100 μl of DMSO were added to each well and mixed for 2 minutes in a shaker at 550 rpm. Then, the solution optical density was determined at the wavelength of 576 nm and 620 nm using a plate reader (EFOS 9305, OAO MZ Sapphir).

3T3-L1 cells [3] = test: Increase of intracellular calcium concentration (Calcium Green fluorescence); format: cell-based, mice; conditions: 67 μM stated for the reference substances, for 10 minutes
Experimental: 3T3-L1 cells were cultivated in DMEM medium with addition of 10% fetal calf serum (FCS), 4 mM of L-glutamine, 100 U/ml of penicillin, 100 μg/ml of streptomycin, 2.5 μg/ml of amphotericin B. Cells were cultured in the atmosphere of 5% CO2, 95% humidity at 37° C. Cell density at the time of experiment was 7000 per well of a 96-well plate, Calcium Green dye (1.5 mM, loading in 0.4% Pluronic F-62 in incubation medium without BSA for 1 hour at 37° C., triple washing of 200 μl of incubation medium after loading), incubation medium: Hanks' solution, 1 g/l of D-glucose, 1 mg/ml of fat-free BSA, introduction of substances in ethanol (<0.5% final concentration), incubation at 25° C., detecting at the excitation wavelength 485 nm, emission wavelength 535 nm.

[4] = Cytotoxicity, MTT assay of cell survival; format: cell-based; conditions: mouse, cultivated mice 3T3-L1 cells, 24 hours incubation
Experimental: as §1, with “solution within 1 minute and in” for “solution within 2-3 minutes and in”, “Trypsin-EDTA solution within 1 minute (0.25%).” for “Trypsin-EDTA solution (0.25%).”
as §2, §3

Prostaglandin F2α Amide with γ-Aminobutyric Acid Nitroethanolamide [Compound 8]
NO generation, % to control (3T3-L1 cells [1]): 22% | IOP reduction (normotensive rabbits): 2.00 mm Hg

Prostaglandin F2α Amide with L-Nitroserine Isopropyl Ether [Compound 5]
IOP reduction (normotensive rabbits): 1.20 mm Hg | EC50 (3T3-L1 cells [2]): 195 ± 2 µM

Prostaglandin F2α Amide with L-Nitroserine [Compound 1]
NO generation, % to control (3T3-L1 cells [1]): 7% | EC50 (3T3-L1 cells [2]): 226.4 ± 2 µM

prostaglandin F2α
calcium sensor fluorescence increase relative to control (3T3-L1 cells [3]): 195 AU

CCCCC[C@H](O)/C=C/[C@@H]1[C@@H](C/C=C\CCCC(=O)NCCOC(=O)NCCO[N+](=O)[O-])[C@@H](O)C[C@H]1O [Compound 11, Prostaglandin F2α Amide with 2-Aminoethyl-[2-(Nitroxy)Ethyl]Carbamate]
NO generation, % to control (3T3-L1 cells [1]): 28% | IOP reduction (normotensive rabbits): 1.50 mm Hg | EC50 at 24 h [4]: 184 ± 3 µM

CCCCCC(O)C=CC1C(O)CC(O)C1CC=CCCCC(=O)N1CCCC1CO [Compound 7, Prostaglandin F2a Amide with L-Prolinol]
NO generation, % to control (3T3-L1 cells [1]): 15% | EC50 (3T3-L1 cells [2]): 104 ± 2 µM

Prostaglandin F2α Amide with L-Serine Isopropyl Ether [Compound 3]
nitric oxide level increase relative to control (3T3-L1 cells [1]; 3T3-L1 cells, 25 μM): 60% | concentration of maximum activity (most effective concentration) for induction of nitrogen oxide generation (3T3-L1 cells [1]; 3T3-L1 cells, tested 25 to 100 μM): 25 µM | NO generation, % to control (3T3-L1 cells [1]): 15% | ability to reduce intraocular pressure (in words) (normotensive rabbits): more prominent | IOP reduction (normotensive rabbits): 3.20 mm Hg | EC50 (3T3-L1 cells [2]): 144 ± 3 µM | calcium sensor fluorescence increase relative to control (3T3-L1 cells [3]): 405 AU

CCCCCC(O)C=CC1C(O)CC(O)C1CC=CCCCC(=O)NC(CO)C(=O)O [Compound 2, Prostaglandin F2α Amide with L-Serine]
NO generation, % to control (3T3-L1 cells [1]): 25% | EC50 (3T3-L1 cells [2]): > 200 µM

CCCCC[C@H](O)/C=C/[C@@H]1[C@@H](C/C=C\CCCC(=O)NC2CC2)[C@@H](O)C[C@H]1O [Compound 6, Prostaglandin F2α Amide with Cyclopropylamine]
NO generation, % to control (3T3-L1 cells [1]): 5% | ability to reduce intraocular pressure (in words) (normotensive rabbits): more prominent | IOP reduction (normotensive rabbits): 3.30 mm Hg | EC50 (3T3-L1 cells [2]): 124 ± 2 µM

CCCCC[C@H](O)/C=C/[C@@H]1[C@@H](C/C=C\CCCC(=O)NCCO)[C@@H](O)C[C@H]1O [prostamide F2, prostaglandin F2α ethanolamide]
calcium sensor fluorescence increase relative to control (3T3-L1 cells [3]): 185 AU
